# According to patent US20190307843A1, “SINGLE DOSE METHODS FOR PREVENTING AND TREATING FUNGAL INFECTIONS” (Cidara Therapeutics, Inc., priority 2016, published 2019):
# Starred links: 1 amine or outer side, 2 acyl side, 3 side chain; linkers in the order of their positions; H or OH if unused. Positions of bridges follow the written chain, without caps; N, C: chain ends. Non-standard residues stand in square brackets, D forms with d. Residues, ends and D or L forms follow the SMILES beside them. *: point of attachment. Orn(4R-OH,5R-OCH2CH2NMe3+) = C[N+](C)(C)CCO[C@@H](N[*:3])[C@H](O)C[C@H](N[*:1])C(=O)[*:2]; pTerphenylCO(4''-OnC5H11) = CCCCCOc1ccc(-c2ccc(-c3ccc(C(=O)*)cc3)cc2)cc1; hTyr(3S-OH,4S-OH) = N[C@H](C(=O)O)[C@H](O)[C@@H](O)c1ccc(O)cc1; Pro(3S-OH,4S-Me) = C[C@H]1CN[C@H](C(=O)O)[C@H]1O; Hyp = O=C(O)[C@@H]1C[C@@H](O)CN1
# Legend:
# [1] = test system: C. albicans strain 529L; test: Rat model of vulvovaginal candidiasis, vaginal lavage and tissue burden; assay type: in vivo, Candida albicans
# [2] = test system: A. fumigatus strain AF293; test: Murine model of pulmonary aspergillosis (Example 13), terminal lung burden; assay type: in vivo, Aspergillus fumigatus
# Procedure: A secondary endpoint for the study was terminal lung tissue burden. Immediately following confirmation of death, carcasses were frozen at −20° C. prior to tissue dissection and processing. The frozen carcasses were thawed at room temperature and the lungs removed and placed into pre-weighed bead-beating tubes containing 2 mL of PBS and subjected to mechanical disruption. Organ homogenates were diluted further in PBS and quantitatively cultured for A. fumigatus onto SABC and incubated at 30° C. for 24-48 hours. In addition, a 300 μL aliquot of the undiluted lung tissue homogenate was stored at −80° C. for possible optional assessment of burden by qPCR.
# [3] = 5 mg/kg SC Dosed Twice, lavage Day 3 post infection
# [4] = 5 mg/kg SC Dosed Twice, lavage Day 5 post infection
# [5] = 5 mg/kg SC Dosed Twice, lavage Day 7 post infection
# [6] = 5 mg/kg SC Dosed Twice, lavage Day 9 post infection
# [7] = 5 mg/kg SC Dosed Twice, terminal vaginal tissue Day +9 post infection
# [8] = 10 mg/kg SC Dosed Once, lavage Day 1 post infection, pre-treatment
# [9] = 10 mg/kg SC Dosed Once, lavage Day 2 post infection
# [10] = 10 mg/kg SC Dosed Once, lavage Day 3 post infection
# [11] = 10 mg/kg SC Dosed Once, lavage Day 5 post infection
# [12] = 10 mg/kg SC Dosed Once, lavage Day 7 post infection
# [13] = 10 mg/kg SC Dosed Once, lavage Day 9 post infection
# [14] = 10 mg/kg SC Dosed Once, terminal vaginal tissue Day +9 post infection
compound,measurement,setting,value
"CCCCCOc1ccc(-c2ccc(-c3ccc(C(=O)N[C@H]4C[C@@H](O)[C@@H](OCC[N+](C)(C)C)NC(=O)[C@@H]5[C@@H](O)[C@@H](C)CN5C(=O)[C@H]([C@@H](C)O)NC(=O)[C@H]([C@H](O)[C@@H](O)c5ccc(O)cc5)NC(=O)[C@@H]5C[C@@H](O)CN5C(=O)[C@H]([C@@H](C)O)NC4=O)cc3)cc2)cc1 [CD101] ({pTerphenylCO(4''-OnC5H11)}-[Orn(4R-OH,5R-OCH2CH2NMe3+)]T[Hyp][hTyr(3S-OH,4S-OH)]T[Pro(3S-OH,4S-Me)]; lactam 1-C)",Log reduction from vehicle control,"[1]; 5 mg/kg SC Dosed Twice, lavage Day 2 post infection",1.29 CFU/mL
same,Group Geometric mean,[1]; [3],1.95 × 10^2 CFU/mL
same,Log Group Geometric mean,[1]; [3],2.29 CFU/mL
same,Log reduction from vehicle control,[1]; [3],1.28 CFU/mL
same,Group Geometric mean,[1]; [4],1.73 × 10^3 CFU/mL
same,Log Group Geometric mean,[1]; [4],3.24 CFU/mL
same,Log reduction from vehicle control,[1]; [4],0.98 CFU/mL
same,Group Geometric mean,[1]; [5],6.47 × 10^2 CFU/mL
same,Log Group Geometric mean,[1]; [5],2.81 CFU/mL
same,Log reduction from vehicle control,[1]; [5],1.37 CFU/mL
same,Group Geometric mean,[1]; [6],1.28 × 10^3 CFU/mL
same,Log Group Geometric mean,[1]; [6],3.11 CFU/mL
same,Log reduction from vehicle control,[1]; [6],1.19 CFU/mL
same,Group Geometric mean,[1]; [7],4.00 × 10^4 CFU/g
same,Log Group Geometric mean,[1]; [7],4.60 CFU/g
same,Group Geometric mean,[1]; [8],3.68 × 10^2 CFU/mL
same,Log Group Geometric mean,[1]; [8],2.57 CFU/mL
same,Log reduction from vehicle control,[1]; [8],−0.13 CFU/mL
same,Group Geometric mean,[1]; [9],2.48 × 10^2 CFU/mL
same,Log Group Geometric mean,[1]; [9],2.39 CFU/mL
same,Log reduction from vehicle control,[1]; [9],1.30 CFU/mL
same,Group Geometric mean,[1]; [10],23.2 CFU/mL
same,Log Group Geometric mean,[1]; [10],1.37 CFU/mL
same,Log reduction from vehicle control,[1]; [10],2.21 CFU/mL
same,Group Geometric mean,[1]; [11],1.73 CFU/mL
same,Log Group Geometric mean,[1]; [11],0.24 CFU/mL
same,Group Geometric mean,[1]; [12],2.59 CFU/mL
same,Log Group Geometric mean,[1]; [12],0.41 CFU/mL
same,Log reduction from vehicle control,[1]; [12],3.77 CFU/mL
same,Group Geometric mean,[1]; [13],2.75 CFU/mL
same,Log Group Geometric mean,[1]; [13],0.44 CFU/mL
same,Log reduction from vehicle control,[1]; [13],3.86 CFU/mL
same,Group Geometric mean,[1]; [14],5.52 CFU/g
same,Log Group Geometric mean,[1]; [14],0.74 CFU/g
same,Log reduction from vehicle control,[1]; [14],4.75 CFU/g
same,burden reduction,"[1]; CD101 5 mg/kg once or twice, lavage Day 5 post infection",about 1 Log10 CFU/m
same,rats having burden below the limit of detection,"[1]; CD101 10 mg/kg dosed once, lavage Day 5 post infection",5/6
same,rats with burdens below the levels of detection,"[1]; CD101 10 mg/kg dosed once, terminal vaginal tissue Day 9",5/6
same,reduction in burden,"[1]; all doses of CD101, lavage Day 2 post infection",about 1.3 Log10 CFU/mL
same,Group Geometric mean (lung burden),[2]; CD101 5 mg/kg IP Day 0,5.65 × 10^4 CFU/g
same,Log10 Group Geometric mean (lung burden),[2]; CD101 5 mg/kg IP Day 0,4.75 CFU/g
same,Log10 reduction from vehicle control,[2]; CD101 5 mg/kg IP Day 0,−0.98 CFU/g
same,Group Geometric mean (lung burden),[2]; CD101 5 mg/kg IP Day −1,3.75 × 10^4 CFU/g
same,Log10 Group Geometric mean (lung burden),[2]; CD101 5 mg/kg IP Day −1,4.57 CFU/g
same,Log10 reduction from vehicle control,[2]; CD101 5 mg/kg IP Day −1,−0.80 CFU/g
same,Group Geometric mean (lung burden),[2]; CD101 5 mg/kg IP Day −3,5.71 × 10^4 CFU/g
same,Log10 Group Geometric mean (lung burden),[2]; CD101 5 mg/kg IP Day −3,4.76 CFU/g
same,Log10 reduction from vehicle control,[2]; CD101 5 mg/kg IP Day −3,−0.98 CFU/g
same,Group Geometric mean (lung burden),[2]; CD101 5 mg/kg IP Day −5,6.36 × 10^4 CFU/g
same,Log10 Group Geometric mean (lung burden),[2]; CD101 5 mg/kg IP Day −5,4.80 CFU/g
same,Log10 reduction from vehicle control,[2]; CD101 5 mg/kg IP Day −5,−1.03 CFU/g
same,Group Geometric mean (lung burden),[2]; CD101 10 mg/kg IP Day −1,5.17 × 10^3 CFU/g
same,Log10 Group Geometric mean (lung burden),[2]; CD101 10 mg/kg IP Day −1,3.71 CFU/g
same,Log10 reduction from vehicle control,[2]; CD101 10 mg/kg IP Day −1,0.06 CFU/g
same,Group Geometric mean (lung burden),[2]; CD101 10 mg/kg IP Day −3,7.34 × 10^3 CFU/g
same,Log10 Group Geometric mean (lung burden),[2]; CD101 10 mg/kg IP Day −3,3.87 CFU/g
same,Log10 reduction from vehicle control,[2]; CD101 10 mg/kg IP Day −3,−0.09 CFU/g
same,Group Geometric mean (lung burden),[2]; CD101 10 mg/kg IP Day −5,3.40 × 10^4 CFU/g
same,Log10 Group Geometric mean (lung burden),[2]; CD101 10 mg/kg IP Day −5,4.53 CFU/g
same,Log10 reduction from vehicle control,[2]; CD101 10 mg/kg IP Day −5,−0.76 CFU/g
same,Group Geometric mean (lung burden),[2]; CD101 20 mg/kg IP Day −1,1.12 × 10^4 CFU/g
same,Log10 Group Geometric mean (lung burden),[2]; CD101 20 mg/kg IP Day −1,4.05 CFU/g
same,Log10 reduction from vehicle control,[2]; CD101 20 mg/kg IP Day −1,−0.28 CFU/g
same,Group Geometric mean (lung burden),[2]; CD101 20 mg/kg IP Day −3,4.92 × 10^4 CFU/g
same,Log10 Group Geometric mean (lung burden),[2]; CD101 20 mg/kg IP Day −3,4.69 CFU/g
same,Log10 reduction from vehicle control,[2]; CD101 20 mg/kg IP Day −3,−0.92 CFU/g
same,Group Geometric mean (lung burden),[2]; CD101 20 mg/kg IP Day −5,8.35 × 10^3 CFU/g
same,Log10 Group Geometric mean (lung burden),[2]; CD101 20 mg/kg IP Day −5,3.92 CFU/g
same,Log10 reduction from vehicle control,[2]; CD101 20 mg/kg IP Day −5,−0.15 CFU/g
